Measurements as given in publication PMC10315211 (Molecular microbiology, 2023).

Target: CpdAEc (N-His-CpdAEc) (Escherichia coli, UniProt P0AEW4)
Assay type: biochemical
Settings: 50 mM Tris-HCl pH 8.0, 0.14 M NaCl, 2 mM MgCl2, room temperature

CpdAEc (N-His-CpdAEc), sequence (P0AEW4 whole entry): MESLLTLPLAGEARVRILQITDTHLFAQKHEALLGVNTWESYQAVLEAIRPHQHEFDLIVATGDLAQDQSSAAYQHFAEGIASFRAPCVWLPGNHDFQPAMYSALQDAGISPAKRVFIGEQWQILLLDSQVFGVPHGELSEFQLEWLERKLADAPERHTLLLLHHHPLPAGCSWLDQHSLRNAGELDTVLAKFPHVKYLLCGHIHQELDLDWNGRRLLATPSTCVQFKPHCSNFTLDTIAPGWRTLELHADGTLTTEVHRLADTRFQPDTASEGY

Structure (SMILES): C[N+](C)(C)CCOP(=O)([O-])OC[C@H](O)CO [glycerophosphocholine]
- choline oxidase / HRP coupled Amplex Red fluorometric assay: both Rv0805 and CpdAEc produced choline and Gly3P from glycerophosphocholine (GPC)
